Measured values reported in US20250345318A1, “COMPOUND AND USE THEREOF IN PREVENTING OR TREATING RADIATION DAMAGE” (SIMCERE PHARMACEUTICAL CO., LTD., priority 2022, published 2025).

How the values were obtained:
JWA = JWA expression in small intestine by Western blot (Example 4); assay type: in vivo, mice; details: small intestine tissue; JAC4 100 mg/kg oral, 7 days before and 4 days after TBI 6 Gy
Method: C57BL/6 male mice (24.8±1.6 g in body weight) aged 10 weeks were divided into 2 groups. After acclimating to the environment, JAC4 (100 mg/kg) or an equal volume of vehicle (polyethylene glycol:ethanol:physiological saline=47.5:7.5:50, v/v/v) was orally administered to the mice once daily for 7 consecutive days. After that, the mice were subjected to total body X-ray irradiation (6 Gy) and JAC4 or vehicle treatment was continued for 4 days, after which small intestine tissues were collected. The expression levels of JWA in the small intestine were detected by Western blot, with β-actin as the reference. Adobe photoshop CC was used to measure the grayscale value of JWA/β-actin in panel A for statistical analysis (** p<0.01).
The Western blot procedures are as follows:
1. Protein sample preparation: Proper volumes of protein sample solutions were mixed with physiological saline to give […] solutions at a volume of 16 μL, and 4 μL of 5×SDS sample buffer was added. The mixture was uniformly mixed, centrifuged at 1000×g for 10 s, and boiled at 100° C. for 5 min. The samples were cooled at room temperature and then preserved in a −20° C. freezer.
(1) Lower separating gel: The glass plates and gel cassette were assembled while ensuring that the bottom of the glass plates was sealed to prevent leakage of the gel. […]

IEC-6 cells = test: Early apoptosis by Annexin V-PI staining in irradiated IEC-6 cells (Example 13); assay type: cell-based; details: 1 μM JAC4 24 h + 12 Gy X-ray, 24 h after
Method: The apoptosis of IEC-6 cells was determined by Annexin V-PI staining and the early apoptosis rates of IEC-6 cells after different treatments were summarized (***p<0.001). The procedures for the detection by Annexin V-PI staining are as follows: IEC-6 cells were seeded in a 6-well plate at 2×10^5 cells/well. After adhesion, the cells were treated with 1 μM JAC4 or DMSO for 24 h and subjected to 12 Gy of X-ray radiation. After 24 h, the cells were harvested in PBS and analyzed using the Annexin V apoptosis detection kit (BD, FACS AriaIII, USA) on a flow cytometer.

SPCA-1 cells = test: CCK-8 cell viability, JAC4 with X-ray, SPCA-1 (Example 22); assay type: cell-based, human; details: 10 μM JAC4 24 h + 4 Gy X-ray 24 h
Method: SPCA-1 and BEAS-2B cells were cultured in a 90%/DMEM+10% FBS+100 μg/mL ciprofloxacin culture medium. The SPCA-1 and BEAS-2B cells were pretreated for 24 h with 10 μM JAC4 and subjected to 4 Gy X-ray treatment for 24 h and then CCK-8 detection, so as to explore the influence of JAC4 in combination with X-ray on the viability of SPCA-1 and BEAS-2B cells. The specific procedures are as follows:
1. SPCA-1 and BEAS-2B cells in the exponential growth phase were plated in a 96-well plate at 5,000 cells/well in triplicate for each group.
2. After 24 h of culture, when the cells fully adhered to the container wall and returned to normal morphology, the cells were treated with X-ray radiation of 0, 4, 8, 12, 16, or 20 Gy or JAC4 at 0, 1, 5, 10, 20, or 50 μM.
3. After 24 h of treatment, CCK-8 reagent was added at 10 μL/well, and the cells were incubated in a cell incubator for 1 h. The absorbance (OD) at 450 nm was measured.
4. Cell viability equation: cell viability (%)=[…]×100%/(ODcontrol−ODblank).

BEAS-2B cells = test: ROS, SOD, CAT and MDA assays, BEAS-2B (Example 22); assay type: cell-based, human
Source text: The large amount of reactive oxygen species (ROS) induced by X-ray and the sustained oxidative stress reaction may cause DNA damage. Superoxide dismutase (SOD) and catalase (CAT) exert antioxidant effects, and the lipid oxidation product malondialdehyde (MDA) and ROS can reflect the oxidative stress level in vivo. The intracellular ROS level was detected using the fluorescent probe DCFH-DA. […] The supernatant of BEAS-2B cells was extracted and subjected to an MDA assay and an activity assay for CAT and SOD.

c1ccc(CSc2nnc(C3COc4ccccc4O3)o2)nc1 (stereo not shown) [JAC4]
mean grayscale value of JWA expression (JWA/β-actin) (JWA): 0.72±0.13 | early apoptosis rate (Annexin V-PI) (IEC-6 cells): 5.74±0.80% | viability of SPCA-1 cells (CCK-8) (SPCA-1 cells): significantly inhibited | CAT activity (BEAS-2B cells; JAC4+X-ray group): 3.56±0.02 U/mg | SOD activity (BEAS-2B cells; JAC4+X-ray group): 24.20±1.18 U/mg | oxidation product MDA level (BEAS-2B cells; JAC4+X-ray group): 31.35 ± 4.34 µM/mg | CAT activity (BEAS-2B cells; JAC4 group): 3.42±0.08 U/mg | SOD activity (BEAS-2B cells; JAC4 group): 28.67±1.36 U/mg | oxidation product MDA level (BEAS-2B cells; JAC4 group): 24.95 ± 1.63 µM/mg | ROS level (BEAS-2B cells; JAC4 in combination with X-ray): significantly reduced
